Target: ERα (Homo sapiens (Human), UniProt P03372)
Test: ERα degradation (MCF7 cells), in-cell Western
Type: cell-based
Conditions: for IC50: inflection point of the degradation in response to ligand concentration; for IC50 / % ERα remaining: MCF7 cells; for % ERα remaining: remaining ERα protein at 10 μM ligand, relative to DMSO control; for ER Percentage remaining: degradation potential
Experimental: ERα Degradation (MCF7 Cells)
The column titled MCF7 IC50 reports the inflection point of the inhibition of transcription in MCF7 cells as described above. Percentage ERα remaining reports the remaining ERα protein measured at 10 μM concentration of the ligand as described above. The column ERα IC50 reports the inflection point of the degradation in response to the ligand concentration.

Chain of ERα (P03372 whole entry): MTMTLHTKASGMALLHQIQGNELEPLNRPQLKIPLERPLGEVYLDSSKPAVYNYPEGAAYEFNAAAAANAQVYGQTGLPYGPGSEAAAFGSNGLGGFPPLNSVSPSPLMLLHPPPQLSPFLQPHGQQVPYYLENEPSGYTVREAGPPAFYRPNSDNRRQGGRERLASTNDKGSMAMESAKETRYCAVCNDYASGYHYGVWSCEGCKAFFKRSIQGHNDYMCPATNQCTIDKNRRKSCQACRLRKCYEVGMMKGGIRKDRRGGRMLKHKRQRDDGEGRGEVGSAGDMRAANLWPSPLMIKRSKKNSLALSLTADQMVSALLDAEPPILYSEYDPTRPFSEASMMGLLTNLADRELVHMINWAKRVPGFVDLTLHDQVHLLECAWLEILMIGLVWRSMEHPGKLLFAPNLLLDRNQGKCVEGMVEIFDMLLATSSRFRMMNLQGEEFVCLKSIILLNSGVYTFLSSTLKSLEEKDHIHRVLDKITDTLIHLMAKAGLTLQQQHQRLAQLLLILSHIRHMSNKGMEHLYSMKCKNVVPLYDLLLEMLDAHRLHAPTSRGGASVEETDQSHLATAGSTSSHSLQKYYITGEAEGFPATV

IC50 [nM] | % ERα remaining [%] | ER Percentage remaining (comparison of X position) [Percentage] | ER Percentage remaining (comparison of linker length between phenyl and -C(O)OH) [Percentage] | Structure (SMILES)
70 | 24 |  |  | O=C(O)/C=C/c1ccc(Oc2c(-c3ccc(O)cc3)sc3c(F)c(O)ccc23)cc1 [Example 39, (E)-3-(4-((7-fluoro-6-hydroxy-2-(4-hydroxyphenyl)benzo[b]thiophen-3-yl)oxy)phenyl)acrylic acid]
22 | 23 |  |  | O=C(O)/C=C/c1ccc(Oc2c(-c3ccc(O)c(F)c3)sc3cc(O)ccc23)cc1 [Example 40, (E)-3-(4-((2-(3-fluoro-4-hydroxyphenyl)-6-hydroxybenzo[b]thiophen-3-yl)oxy)phenyl)acrylic acid]
60 | 39 |  |  | Cn1nnnc1/C=C/c1ccc(Oc2c(-c3ccc(O)cc3)sc3cc(O)ccc23)cc1 [Example 54, (E)-2-(4-hydroxyphenyl)-3-(4-(2-(1-methyl-1H-tetrazol-5-yl)vinyl)phenoxy)benzo[b]thiophen-6-ol]
 | 37 |  |  | Cc1cc(/C=C/C(=O)O)ccc1Oc1c(-c2ccc(O)cc2)sc2cc(O)ccc12 [Example 57, (E)-3-(4-((6-hydroxy-2-(4-hydroxyphenyl)-benzo[b]thiophen-3-yl)oxy)-3-methylphenyl)acrylic acid]
30 | 17 |  |  | O=C(O)/C=C/c1ccc(Oc2c(-c3ccc(OC(F)(F)F)cc3)sc3cc(O)ccc23)cc1 [Example 59, (E)-3-(4-((6-hydroxy-2-(4-(trifluoromethoxy)-phenyl)benzo[b]thiophen-3-yl)oxy)phenyl)-acrylic acid]
26 | 23 |  |  | O=C(O)/C=C/c1ccc(Oc2c(-c3ccccc3)sc3cc(O)ccc23)cc1 [Example 60, (E)-3-(4-((6-hydroxy-2-phenylbenzo[b]thiophen-3-yl)oxy)phenyl)-acrylic acid]
18 | 26 |  |  | Cc1cc(-c2sc3cc(O)ccc3c2Oc2ccc(/C=C/C(=O)O)cc2)ccc1O [Example 61, (E)-3-(4-((6-hydroxy-2-(4-hydroxy-3-methylphenyl)benzo[b]thiophen-3-yl)oxy)phenyl)acrylic acid]
 | 42 |  |  | C/C(=C\C(=O)O)c1ccc(Oc2c(-c3ccc(O)cc3)sc3cc(O)ccc23)cc1 [Example 62, (E)-3-(4-((6-hydroxy-2-(4-hydroxyphenyl)-benzo[b]thiophen-3-yl)oxy)phenyl)but-2-enoic acid]
 | 48 |  |  | NC(=O)/C=C/c1ccc(Oc2c(-c3ccc(O)cc3)sc3cc(O)ccc23)cc1 [Example 64, (E)-3-(4-((6-hydroxy-2-(4-hydroxyphenyl)-benzo[b]thiophen-3-yl)oxy)phenyl)acrylamide]
 | 47 |  |  | O=C(/C=C/c1ccc(Oc2c(-c3ccc(O)cc3)sc3cc(O)ccc23)cc1)NCCO [Example 65, (E)-3-(4-((6-hydroxy-2-(4-hydroxyphenyl)benzo[b]thiophen-3-yl)oxy)phenyl)-N-(2-hydroxyethyl)acrylamide]
58 | 40 |  |  | CNC(=O)/C=C/c1ccc(Oc2c(-c3ccc(O)cc3)sc3cc(O)ccc23)cc1 [Example 66, (E)-3-(4-((6-hydroxy-2-(4-hydroxyphenyl)benzo[b]thiophen-3-yl)oxy)phenyl)-N-methylacrylamide]
347 | 36 |  |  | CNC(=O)/C=C/c1ccc(Oc2c(-c3ccc(F)cc3)sc3cc(O)ccc23)cc1 [Example 67, (E)-3-(4-((2-(4-fluorophenyl)-6-hydroxybenzo[b]thiophen-3-yl)oxy)phenyl)-N-methylacrylamide]
161 | 43 |  |  | CNC(=O)/C=C/c1ccc(Oc2c(-c3ccc(O)c(C)c3)sc3cc(O)ccc23)cc1 [Example 68, (E)-3-(4-((6-hydroxy-2-(4-hydroxy-3-methylphenyl)benzo[b]thiophen-3-yl)oxy)phenyl)-N-methylacrylamide]
 | 41 |  |  | CCCn1cncc1/C=C/c1ccc(Oc2c(-c3ccc(O)cc3)sc3cc(O)ccc23)cc1 [Example 75, (E)-2-(4-hydroxyphenyl)-3-(4-(2-(1-propyl-1H-imidazol-5-yl)vinyl)phenoxy)benzo [b]thiophen-6-ol]
 | 14 |  |  | COCc1ccccc1-c1sc2cc(O)ccc2c1Oc1ccc(/C=C/C(=O)O)cc1 [Example 80, (E)-3-(4-((6-hydroxy-2-(2-(methoxymethyl)phenyl)benzo[b]thiophen-3-yl)oxy)phenyl)acrylic acid]
34 | 33 |  |  | Cn1nnc(/C=C/c2ccc(Oc3c(-c4ccc(O)cc4)sc4cc(O)ccc34)cc2)n1 [compound 55, (E)-2-(4-hydroxyphenyl)-3-(4-(2-(2-methyl-2H-tetrazol-5-yl)vinyl)-phenoxy)benzo[b] thiophen-6-ol]
 |  | 41 |  | O=C(O)/C=C/c1ccc(Oc2c(-c3ccc(O)cc3)sc3cc(O)ccc23)cc1 [drawing 5]
 |  |  | 41 | O=C(O)/C=C/c1ccc(Oc2c(-c3ccc(O)cc3)sc3cc(O)ccc23)cc1 [drawing 8]
 |  | 76 |  | O=C(O)/C=C/c1ccc(-c2c(-c3ccc(O)cc3)sc3cc(O)ccc23)cc1 [reference compound]
 |  | 60 |  | O=C(O)/C=C/c1ccc(C(=O)c2c(-c3ccc(O)cc3)sc3cc(O)ccc23)cc1 [reference compound]

Second part, the molecule before the results:

Structure (SMILES) | IC50 [nM] | % ERα remaining [%] | ER Percentage remaining (comparison of X position) [Percentage] | ER Percentage remaining (comparison of linker length between phenyl and -C(O)OH) [Percentage]
O=C(O)/C=C/c1ccc(Oc2c(-c3ccc(O)cc3)sc3c(F)c(O)c(F)cc23)cc1 [Example 38, (E)-3-(4-((5,7-difluoro-6-hydroxy-2-(4-hydroxyphenyl)benzo[b]thiophen-3-yl)oxy)phenyl)acrylic acid] | 22 | 25 |  | 
Cc1nnc(/C=C/c2ccc(Oc3c(-c4ccc(F)cc4C)sc4cc(O)ccc34)cc2)o1 [Example 46, (E)-2-(4-fluoro-2-methylphenyl)-3-(4-(2-(5-methyl-1,3,4-oxadiazol-2-yl)vinyl)phenoxy)benzo[b]thiophen-6-ol] | 5 | 41 |  | 
Cc1cc(F)ccc1-c1sc2cc(O)ccc2c1Oc1ccc(/C=C/c2n[nH]c(=O)o2)cc1 [Example 48, (E)-5-(4-((2-(4-fluoro-2-methylphenyl)-6-hydroxybenzo [b]thiophen-3-yl)oxy)styryl)-1,3,4-oxadiazol-2(3H)-one] |  | 44 |  | 
Cc1nnc(/C=C/c2ccc(Oc3c(-c4ccc(F)cc4C)sc4cc(O)ccc34)cc2)[nH]1 [Example 49, (E)-2-(4-fluoro-2-methylphenyl)-3-(4-(2-(5-methyl-4H-1,2,4-triazol-3-yl)vinyl)phenoxy)benzo[b]thiophen-6-ol] |  | 28 |  | 
O=c1nc(/C=C/c2ccc(Oc3c(-c4ccc(O)cc4)sc4cc(O)ccc34)cc2)cc(C(F)(F)F)[nH]1 [Example 50, (E)-4-(4-((6-hydroxy-2-(4-hydroxyphenyl)-benzo[b]thiophen-3-yl)oxy)styryl)-6-(trifluoromethyl) pyrimidin-2(1H)-one] | 22 | 36 |  | 
Cc1cc(F)ccc1-c1sc2cc(O)ccc2c1Oc1ccc(/C=C/c2nnnn2C)cc1 [Example 51, (E)-2-(4-fluoro-2-methylphenyl)-3-(4-(2-(1-methyl-1H-tetrazol-5-yl)vinyl)phenoxy)-benzo[b]thiophen-6-ol] | 11 | 41 |  | 
Cn1nnnc1/C=C/c1ccc(Oc2c(-c3ccc(F)cc3)sc3cc(O)ccc23)cc1 [Example 52, (E)-2-(4-fluorophenyl)-3-(4-(2-(1-methyl-1H-tetrazol-5-yl)vinyl)phenoxy)benzo [b]thiophen-6-ol] | 223 | 41 |  | 
CCCn1nnnc1/C=C/c1ccc(Oc2c(-c3ccc(F)cc3C)sc3cc(O)ccc23)cc1 [Example 53, (E)-2-(4-fluoro-2-methylphenyl)-3-(4-(2-(1-propyl-1H-tetrazol-5-yl)vinyl)phenoxy) benzo[b]thiophen-6-ol] |  | 43 |  | 
CNC(=O)/C=C/c1ccc(Oc2c(-c3ccc(C(F)(F)F)cc3)sc3cc(O)ccc23)cc1 [Example 63, (E)-3-(4-((6-hydroxy-2-(4-(trifluoromethyl)-phenyl)benzo[b]thiophen-3-yl)oxy)phenyl)-N-methylacrylamide] | 24 | 26 |  | 
Cc1cc(F)ccc1-c1sc2cc(O)ccc2c1Oc1ccc(/C=C/c2nnc(C3CC3)o2)cc1 [Example 76, (E)-3-(4-(2-(5-cyclopropyl-1,3,4-oxadiazol-2-yl)vinyl)phenoxy)-2-(4-fluoro-2-methylphenyl)benzo[b] thiophen-6-ol] | 47 | 42 |  | 
Cc1cc(F)ccc1-c1sc2cc(O)ccc2c1Oc1ccc(/C=C/c2nnc(C)n2C)cc1 [Example 106, (E)-3-(4-(2-(4,5-dimethyl-4H-1,2,4-triazol-3-yl)vinyl)phenoxy)-2-(4-fluoro-2-methylphenyl)benzo[b] thiophen-6-ol] |  | 17 |  | 
CCc1cccc(CC)c1-c1sc2cc(O)ccc2c1Oc1ccc(/C=C/C(=O)O)cc1 [Example 130, (E)-3-(4-((2-(2,6-diethylphenyl)-6-hydroxybenzo[b]thiophen-3-yl)oxy)phenyl)acrylic acid] |  | 12 |  | 
CCCc1nnc(/C=C/c2ccc(Oc3c(-c4ccc(F)cc4C)sc4cc(O)ccc34)cc2)o1 [compound 47, (E)-2-(4-fluoro-2-methylphenyl)-3-(4-(2-(5-propyl-1,3,4-oxadiazol-2-yl)vinyl)phenoxy)benzo [b]thiophen-6-ol] |  | 43 |  | 
